# Laboratory results: patent US20040180938A1, “Novel butadiene derivatives, process for preparation of the same and intermediates for the synthesis thereof” (priority 2001, published 2004)
structure (smiles),measurement,value
COC(=O)C(=C(/C)c1ccc(C(=O)O)cc1)/C(=C\c1cccc(OC)c1)C(=O)Nc1ccnc(C)c1.Cl,melting point,232 °C (dec.)
